Test results taken from PubChem BioAssay (NCI).
Several values for one entry are separate records, joined by “and”; a condition that tells them apart may be missing. Identical values can stand only once.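 In this assay, cells in 96-well plates receive the compound at five concentrations for 48 hours. Endpoints are linearly interpolated between the surrounding concentrations. Abbreviation: GI50, concentration required for 50% inhibition of growth. TGI: concentration producing complete growth inhibition.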

Key:
Assay in all cases: DTP human tumour cell line panel, 48 h
XF 498 CNS = test system: XF 498 CNS
UACC-257 melanoma = test system: UACC-257 melanoma
NCI-H23 lung = test system: NCI-H23 lung
UO-31 renal = test system: UO-31 renal
LOX IMVI melanoma = test system: LOX IMVI melanoma
OVCAR-5 ovarian = test system: OVCAR-5 ovarian
SNB-75 CNS = test system: SNB-75 CNS
DMS 273 small cell lung = test system: DMS 273 small cell lung
NCI-H226 lung = test system: NCI-H226 lung
T-47D breast = test system: T-47D breast

Structure (SMILES)	TGI (XF 498 CNS)	TGI (UACC-257 melanoma)	TGI (NCI-H23 lung)	TGI (UO-31 renal)	TGI (LOX IMVI melanoma)	TGI (OVCAR-5 ovarian)	TGI (SNB-75 CNS)	TGI (DMS 273 small cell lung)	TGI (NCI-H226 lung)	GI50 (XF 498 CNS) [nM]	GI50 (T-47D breast) [nM]	TGI (T-47D breast)	GI50 (UACC-257 melanoma)	GI50 (NCI-H23 lung)	GI50 (UO-31 renal)	GI50 (LOX IMVI melanoma)	GI50 (OVCAR-5 ovarian)	GI50 (SNB-75 CNS)	GI50 (DMS 273 small cell lung) [nM]	GI50 (NCI-H226 lung)
Cc1cc(C)nc(NS(=O)(=O)c2ccc(NC(=O)c3cccc4c(Nc5ccc(S(N)(=O)=O)cc5)c5ccccc5nc34)cc2)n1	88200 nM	72400 nM	> 100000 nM	> 100000 nM	99800 nM	> 100000 nM	> 100000 nM	> 100000 nM	> 100000 nM											
O=C(/C=C/c1ccccc1Cl)NC1C=Nc2ccc([N+](=O)[O-])cc2NC1 (configuration not stated)	> 100000 nM	> 100000 nM		> 100000 nM	> 100000 nM	> 100000 nM	> 100000 nM	> 100000 nM	> 100000 nM											
CC(C)N(C(=O)C12C3C4C1(I)C1C2C3(I)C41C(=O)N(C(C)C)C(C)C)C(C)C (configuration not stated)	> 100000 nM	> 100000 nM	> 100000 nM	> 100000 nM	> 60500 nM	> 100000 nM	> 100000 nM	> 100000 nM	> 100000 nM											
COC(=O)[C@H]1C=C[C@@H](C)n2c(=O)c3cc4ccccc4cc3c(=O)n21	> 100000 nM	> 100000 nM	> 100000 nM	> 100000 nM	> 100000 nM	> 100000 nM	> 100000 nM	> 100000 nM	> 100000 nM											
CC1COC(C)(C)P(=O)(c2ccccc2)C1 (configuration not stated)	> 100000 nM	> 100000 nM	> 100000 nM	> 100000 nM	> 100000 nM	> 100000 nM	> 100000 nM	> 100000 nM	> 100000 nM											
CC[C@H]1CN2CCc3cc(OC)c(OC)cc3[C@@H]2C[C@@H]1C[C@H]1NCCc2c1[nH]c1ccc(O)cc21	58.6 nM and 268 nM	666 nM and 690 nM and 643 nM	47.2 nM and 112 nM and 70.6 nM	772 nM and 4500 nM and 1900 nM	22.3 nM and 90.2 nM and < 10.7 nM	91 nM and 335 nM and 379 nM	111 nM and 73.2 nM and 54.4 nM	84 nM and 24 nM	77.8 nM and 261 nM and 32.6 nM	41.5	23.3	89.7 nM and 58.3 nM	223 nM and 212 nM	17.7 nM and 30.3 nM	251 nM and 1200 nM	4.34 nM and 20.7 nM	24.6 nM and 40.1 nM	32 nM and 22.3 nM	26.1	28.2 nM and 40.9 nM
CCCO/S(=N\S(=O)(=O)c1ccccc1)c1ccccc1[N+](=O)[O-] (configuration not stated)	> 100000 nM	> 100000 nM	> 100000 nM	> 100000 nM	> 100000 nM	> 100000 nM	> 100000 nM	> 100000 nM	> 100000 nM											
COc1cc2c(OC)cc1CSCc1sc(C)c(c1Br)CSC2	> 100000 nM	> 100000 nM	> 100000 nM	> 100000 nM	> 100000 nM	> 100000 nM	> 100000 nM	> 100000 nM	> 100000 nM											
